In patent publication US20090143421A1, “USE OF 2-BENZOYL-IMIDAZOPYRIDINES IN THERAPEUTICS” (SANOFI-AVENTIS, priority 2006, published 2009):
Structures can show the parent of a compound that is named as a salt.

Tests used:
[1] = molecular target: T1, mouse Nurrl receptor (Mus musculus, UniProt Q06219); assay: in vitro activity on N2A cells (NBRE-luciferase reporter); assay type: cell-based; conditions: N2A-8NBRE-luciferase cells, 24 hours incubation with the products
T1 construct: a cell line (N2A) endogenously expressing the mouse Nurrl receptor; host or cells: Neuro-2A (N2A) mouse neuroblastoma cells stably transfected with 8NBRE-luciferase
Procedure: Evaluation of the in vitro Activity on N2A Cells
Assays consisted in measuring the in vitro activity of the compounds of the invention on a cell line (N2A) endogenously expressing the mouse Nurrl receptor and stably transfected with the NOT binding response element (NBRE) coupled to the luciferase reporter gene. The EC50 values are between 0.01 and 1000 nM. The assays were carried out according to the procedure described below.
The Neuro-2A cell line comes from a standard commercial source (ATCC) . The Neuro-2A clone was obtained from a spontaneous tumor originating from an A albino mouse strain, by R. J Klebe et al. This Neuro-2A line is subsequently stably transfected with 8NBRE-luciferase. The N2A-8NBRE cells are cultured until confluence in 75 cm^2 culture flasks containing DMEM supplemented with 10% of fetal calf serum, 4.5 g/l of glucose and 0.4 mg/ml of geneticin. After a week of culture, the cells are recovered with 0.25% trypsin for 30 seconds and then resuspended in DMEM without phenol red, containing 4.5 g/l of glucose and 10% of Hyclone delipidized serum, and deposited into transparent-bottom 96-well white plates. The cells are deposited at a rate of 60 000 per well in 75 μl for 24 hours before the addition of the products. […] The plates are subsequently measured in a luminescence counter for microplates after having been sealed with an adhesive film. […]

[2] = tested on: human NOT receptor; assay: binding to the human NOT receptor by SPR (BIACORE S51); conditions: immobilized GST-NOT whole protein and NOT ligand-binding domain, 3.75 to 0.1 μM, 4° C.
Procedure: Evaluation of the Binding to the Human NOT Receptor
The direct binding between compounds of the invention and the human NOT receptor was evaluated using SPR (surface plasmon resonance) technology. In this assay, the protein is immobilized covalently to the matrix and the molecule to be studied is injected into the chamber containing the sensor chip. The signal is directly proportional to the amount of product bound to the protein. The binding assays were carried out in a BIACORE S51 instrument (Biacore Inc., Piscataway N.J.). The GST-NOT (NOT-FL) whole protein was provided by Invitrogen (PV3265). The NOT ligand-binding domain (His-Thr-NOT 329-598) was expressed and purified as described in Nature 423, 555-560. The two proteins, diluted to a concentration of 20 μg/ml in an acetate buffer, pH 5.0, containing 5 mM of DTT, were immobilized on a carboxymethyl 5′ dextran surface (CM5 sensor chip, Biacore Inc.) by amine coupling according to the protocol recommended by Biacore, elution being carried with an HBS-N buffer (10 mM HEPES, 0.15 M NaCl, 3 mM EDTA, pH 7.4). Approximately 10000-15000 resonance units (RU) of the proteins are captured on the surface of the CM5 sensor chip. […] The dissociation was recorded for 5 minutes without any other procedure for regenerating the surface. […]

T1 sequence (Q06219 whole entry): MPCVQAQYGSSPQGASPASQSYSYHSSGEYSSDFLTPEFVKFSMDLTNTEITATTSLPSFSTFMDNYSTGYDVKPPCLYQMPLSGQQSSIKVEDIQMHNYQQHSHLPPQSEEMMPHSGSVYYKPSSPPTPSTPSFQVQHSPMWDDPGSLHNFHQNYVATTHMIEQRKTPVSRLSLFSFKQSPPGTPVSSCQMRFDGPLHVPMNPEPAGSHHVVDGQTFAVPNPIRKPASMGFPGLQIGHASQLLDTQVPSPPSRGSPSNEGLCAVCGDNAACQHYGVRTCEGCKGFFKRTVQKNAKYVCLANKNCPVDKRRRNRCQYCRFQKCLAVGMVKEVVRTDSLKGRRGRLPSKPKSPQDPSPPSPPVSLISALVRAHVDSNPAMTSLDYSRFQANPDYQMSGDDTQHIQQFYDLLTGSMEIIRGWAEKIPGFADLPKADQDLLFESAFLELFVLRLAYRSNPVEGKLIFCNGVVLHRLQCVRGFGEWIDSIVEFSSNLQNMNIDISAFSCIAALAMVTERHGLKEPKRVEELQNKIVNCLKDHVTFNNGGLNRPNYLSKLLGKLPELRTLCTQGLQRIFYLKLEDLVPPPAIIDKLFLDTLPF

Row | EC50 [1] [nM] | affinity (classified by maximum binding level and kinetic parameters) [2] | Compound
1 | 1.2 | medium affinity | Cc1ccn2cc(C(=O)c3ccccc3)nc2c1 [Compound 6, (7-methylimidazo[1,2-a]pyridin-2-yl)(phenyl)methanone]
2 | – | high affinity | O=C(c1ccccc1)c1cn2cc(Cl)ccc2n1 [Compound 3, (6-Chloroimidazo[1,2-a]Pyridin-2-yl)-(Phenyl)Methanone Hydrobromide (1:1)]
3 | 31 | – | O=C(c1ccccc1)c1cn2ccccc2n1 [Compound 7, (imidazo[1,2-a]pyridin-2-yl)(phenyl)methanone]
